Test systems include CAKI-1; OVCAR-4; HCT-15; SW-620; RXF 393; U-251; RPMI-8226; K562; SK-MEL-28; COLO 205; SF-295; KM12; OVCAR-8; SNB-19; SNB-75; HCC 2998; SR.
Common to all, as to assay: DTP human tumour cell line panel, 48 h

Molecules are shown by their SMILES.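 The compound was tested at five concentrations on cells cultured in 96-well plates, with a 48-hour exposure period. GI50: concentration for 50% inhibition of growth.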 Activity calls are given as the source filed them. Cut-off read from the data, not from the text of the source: active = GI50 up to about 1.1 µM and inactive = higher.

As for `CC(C)c1cccc2sc(NC(=O)C(=O)CC(=O)c3ccc(F)cc3)nc12`, the GI50 in the assay on CAKI-1 is > 100 µM (inactive); in the assay with OVCAR-4 it was > 100 µM (inactive); in the assay with HCT-15, greater than 100 µM; with SW-620, > 100 µM (inactive); in the assay on RXF 393, > 100 µM (inactive); with U-251, > 100 µM (inactive). Also, the GI50 in the assay on RPMI-8226, in the assay with K562, in the assay on SK-MEL-28, in the assay with COLO 205, with SF-295 and in the assay with KM12 was > 100 µM (inactive) throughout. Besides, the GI50 in the assay on OVCAR-8 was > 100 µM (inactive); in the assay with SNB-19, > 100 µM (inactive); in the assay on SNB-75 it was 59.7 µM (inactive).

As for `Clc1ccc(C[P+](c2ccccc2)(c2ccccc2)c2ccccc2)cc1Cl`, the GI50 in the assay on CAKI-1 is 2.57 µM (inactive); in the assay on HCC 2998, 2.46 µM (inactive); in the assay with OVCAR-4, 4.4 µM (inactive); with HCT-15, 17 µM; with SW-620, 2.93 µM (inactive); with U-251, 1.63 µM (inactive). The GI50 with K562 was 4.31 µM (inactive); with SK-MEL-28, 3.67 µM (inactive); in the assay with COLO 205 it was 1.55 µM (inactive); with SF-295 it was 10.3 µM (inactive); in the assay with SR, 2.61 µM (inactive); with KM12 it was 2.69 µM (inactive). In addition, the GI50 with OVCAR-8 was 3.05 µM (inactive); with SNB-19, 3.21 µM (inactive); in the assay with SNB-75, 1.77 µM (inactive).

Consider `Cc1ccc([N+](=O)[O-])cc1NC(=O)C(=O)Cc1occc(=O)c1O`, for which the GI50 in the assay with CAKI-1 was > 100 µM (inactive); in the assay with HCC 2998 it was > 100 µM (inactive); in the assay on HCT-15 it was greater than 100 µM; in the assay with SW-620 it was > 100 µM (inactive); with RXF 393 it was > 100 µM (inactive); in the assay with U-251, > 100 µM (inactive). Also, the GI50 in the assay with RPMI-8226, in the assay on K562, in the assay with SK-MEL-28, with COLO 205, in the assay on SF-295 and in the assay on SR was > 100 µM (inactive) in each case. In addition, the GI50 in the assay with KM12, in the assay on OVCAR-8, with SNB-19 and in the assay on SNB-75 was > 100 µM (inactive) throughout.

In the case of `Cc1cc(N(CCC#N)CCC#N)ccc1/C=C1/N=C(c2ccccc2)N(N)C1=O`, the GI50 was 98.2 µM (inactive) in the assay with CAKI-1; > 100 µM (inactive) in the assay on HCC 2998; 34.8 µM (inactive) in the assay on OVCAR-4; greater than 100 µM in the assay on HCT-15; 85.5 µM (inactive) with SW-620; 63.7 µM (inactive) in the assay on U-251. For the same compound, the GI50 in the assay with RPMI-8226 was > 100 µM (inactive); in the assay with K562, 53.5 µM (inactive); in the assay with SK-MEL-28, > 100 µM (inactive); in the assay on COLO 205, > 100 µM (inactive); in the assay on SF-295, 46.1 µM (inactive); with KM12, > 100 µM (inactive). In addition, the GI50 in the assay with OVCAR-8 is > 100 µM (inactive); with SNB-19 it was 31.1 µM (inactive); with SNB-75 it was 21.1 µM (inactive).

`O=C(O)Cc1cc(=O)[nH]c2c1/C(=N/O)CCC2`: the GI50 is > 100 µM (inactive) with HCC 2998; greater than 100 µM with HCT-15; > 100 µM (inactive) in the assay with SW-620; > 100 µM (inactive) with RXF 393; > 100 µM (inactive) with U-251; > 100 µM (inactive) in the assay on RPMI-8226. For the same compound, the GI50 in the assay with K562, in the assay with SK-MEL-28, with SF-295, in the assay on SR, with KM12 and with OVCAR-8 was > 100 µM (inactive) throughout. The GI50 with SNB-19 is > 100 µM (inactive).

Take `CC(Oc1ccc(OCC2CCCCC2)cc1)C(=O)N(CCO)CCO` (stereo unspecified): the GI50 is 32.9 µM (inactive) with HCC 2998; > 100 µM (inactive) in the assay on OVCAR-4; greater than 100 µM in the assay with HCT-15; > 100 µM (inactive) in the assay on RXF 393; > 100 µM (inactive) in the assay on U-251; > 100 µM (inactive) in the assay on K562. The GI50 with SK-MEL-28 is > 100 µM (inactive); in the assay on SF-295 it was > 100 µM (inactive); in the assay on KM12, > 100 µM (inactive); with OVCAR-8, > 100 µM (inactive); in the assay on SNB-19, > 100 µM (inactive); with SNB-75, 92.9 µM (inactive).

With `CC(=O)c1cc([N+](=O)[O-])ccc1OCC(=O)O`, the GI50 in the assay on CAKI-1 is > 100 µM (inactive); in the assay with HCC 2998, > 100 µM (inactive); with OVCAR-4, > 100 µM (inactive); in the assay with HCT-15, greater than 100 µM; in the assay on SW-620, > 100 µM (inactive); with RXF 393, > 100 µM (inactive). In addition, the GI50 in the assay on U-251, with RPMI-8226, in the assay on K562, in the assay on SK-MEL-28, in the assay with COLO 205 and in the assay with SF-295 was > 100 µM (inactive) each time. Further, the GI50 in the assay with KM12, with OVCAR-8, with SNB-19 and in the assay on SNB-75 was > 100 µM (inactive) each time.

On to `Cn1c(/C=C/CO)c(CO)c2c1C(=O)C=C(N1CC1)C2=O` [APAZIQUONE], for which the 50% growth inhibitory concentration (GI50) in the assay on CAKI-1 is < 0.01 µM (active); in the assay with HCC 2998, < 0.01 µM (active); in the assay with OVCAR-4, 0.0516 µM (active); in the assay with HCT-15, less than 0.01 µM; in the assay with SW-620, < 0.01 µM (active); in the assay with RXF 393, < 0.01 µM (active). For the same compound, the GI50 is < 0.01 µM (active) in the assay on U-251; 0.0172 µM (active) in the assay with RPMI-8226; 0.0195 µM (active) with K562; 0.0198 µM (active) in the assay on SK-MEL-28; < 0.0122 µM (active) with COLO 205; < 0.01 µM (active) in the assay on SF-295. In addition, the GI50 in the assay on KM12 is < 0.01 µM (active); with OVCAR-8, < 0.0156 µM (active); with SNB-19, < 0.01 µM (active); in the assay on SNB-75, < 0.01 µM (active).

Regarding `NCCCNCCSP(=O)(O)O` [AMIFOSTINE], the GI50 is > 678 µM (inactive) in the assay on CAKI-1; > 733 µM (inactive) with HCC 2998; > 635 µM (inactive) in the assay on OVCAR-4; greater than 274 µM in the assay on HCT-15; > 750 µM (inactive) with SW-620; > 736 µM (inactive) with RXF 393. For the same compound, the GI50 was > 750 µM (inactive) in the assay with U-251; > 452 µM (inactive) in the assay with RPMI-8226; > 750 µM (inactive) in the assay on K562; > 750 µM (inactive) in the assay on SK-MEL-28; 385 µM (inactive) in the assay with COLO 205; > 750 µM (inactive) in the assay on SF-295. In addition, the GI50 in the assay on KM12 is 543 µM (inactive); in the assay with OVCAR-8 it was > 511 µM (inactive); with SNB-19, > 750 µM (inactive); with SNB-75, > 750 µM (inactive).

Turning to `C1=Nc2ccccc2Cn2nncc21`, the GI50 in the assay on CAKI-1 was 29.9 µM (inactive); in the assay with HCC 2998, 99.5 µM (inactive); in the assay on OVCAR-4, > 100 µM (inactive); in the assay with HCT-15, 41.8 µM; in the assay on SW-620 it was 34 µM (inactive); in the assay with RXF 393, > 100 µM (inactive). Also, the GI50 with U-251 is 26 µM (inactive); in the assay on RPMI-8226 it was > 100 µM (inactive); in the assay with K562 it was 35.2 µM (inactive); with SK-MEL-28, 80.7 µM (inactive); in the assay with COLO 205, > 100 µM (inactive); in the assay with SR it was 60.3 µM (inactive). Besides, the GI50 in the assay with KM12 is 47.1 µM (inactive); in the assay on OVCAR-8, > 100 µM (inactive); in the assay with SNB-19, > 100 µM (inactive).

For `CC(=O)OCc1cc(=O)n(C)c2c3c4c(cc12)c(C)cc(=O)n4CO3`, the GI50 in the assay with CAKI-1 was 1.95 µM (inactive); in the assay with HCC 2998, 1.52 µM (inactive); in the assay on OVCAR-4, 1.42 µM (inactive); with HCT-15 it was 1.95 µM; in the assay on SW-620, 0.489 µM (active); in the assay on RXF 393 it was 1.3 µM (inactive). The GI50 in the assay on U-251 was 1.23 µM (inactive); with RPMI-8226, 1.51 µM (inactive); in the assay on K562, 1.14 µM (inactive); in the assay with SK-MEL-28 it was 1.64 µM (inactive); in the assay with COLO 205, 1.23 µM (inactive); with SF-295, 1.57 µM (inactive). Moreover, the GI50 is 1.23 µM (inactive) in the assay with KM12, 0.555 µM (active) in the assay on OVCAR-8, 1.61 µM (inactive) in the assay on SNB-19 and 1.91 µM (inactive) with SNB-75.

Regarding `CCCCC1(C2c3ccccc3Oc3ccccc32)C(=O)N(c2ccccc2)N(c2ccccc2)C1=O`, the GI50 in the assay with CAKI-1 is 11.6 µM (inactive); in the assay with HCC 2998, > 41.1 µM (inactive); in the assay with OVCAR-4, 60.1 µM (inactive); in the assay on HCT-15 it was 41.3 µM; in the assay with SW-620, 56.6 µM (inactive); with RXF 393, 19.9 µM (inactive). Moreover, the GI50 with U-251 is 31.3 µM (inactive); in the assay on RPMI-8226 it was 27.7 µM (inactive); with K562, 18.9 µM (inactive); in the assay on SK-MEL-28, > 100 µM (inactive); with COLO 205, > 100 µM (inactive); with SF-295, > 92.7 µM (inactive). For the same compound, the GI50 in the assay on KM12 is 63.5 µM (inactive); in the assay on OVCAR-8, > 100 µM (inactive); in the assay on SNB-19, 82 µM (inactive); with SNB-75 it was 86.7 µM (inactive).

As for `Cc1cc2nc3c(=O)n(C)c(=O)nc-3n(-c3ccc(Cl)cc3)c2cc1C`, the GI50 in the assay on CAKI-1 was 16.4 µM (inactive); with HCC 2998 it was 3.95 µM (inactive); with OVCAR-4, 5.16 µM (inactive); with HCT-15 it was 3.68 µM; in the assay on SW-620 it was 4.2 µM (inactive); in the assay on U-251, 9.66 µM (inactive). Besides, the GI50 in the assay on RPMI-8226 is 6.37 µM (inactive); with K562, 12.8 µM (inactive); with SK-MEL-28, 15.2 µM (inactive); in the assay on COLO 205, 2.24 µM (inactive); in the assay on SF-295, 12.2 µM (inactive); with KM12, 16 µM (inactive). The GI50 with OVCAR-8 is 13.1 µM (inactive); with SNB-19, 5.78 µM (inactive); in the assay on SNB-75, 11.4 µM (inactive).

(Values after ChEMBL document CHEMBL1201862, “PubChem BioAssay data set” (2004).)
